In the test the test system is AKR/Lw mice, AKR lymphoma ip, median survival T/C. Description: NCI In Vivo Anticancer Drug Screen. Data for tumor model Lymphoma AKR (Transplanted) (intraperitoneal) in AKR/Lw mice. The following applies: endpoint: median survival time, higher = longer survival. As for the experimental part: The antitumor activity of compounds was measured in mice bearing transplantable tumors. Survival or tumor size were measured and the results are expressed as the measurement made in the treated group (T) divided by the measurement made in the vehicle treated control group (C). The tumor model used in this assay is Lymphoma AKR (Transplanted) (intraperitoneal) in AKR/Lw mice

The mark [1] stands for this setting: dose: 100.0 mg/kg/injection, schedule: Q01DX001 (ip), vehicle: Klucel (hydroxypropylcellulose) (HPC).
[2] abbreviates: dose: 200.0 mg/kg/injection, schedule: Q01DX001 (ip), vehicle: Klucel (hydroxypropylcellulose) (HPC).
The mark [3] stands for this setting: dose: 100.0 mg/kg/injection, schedule: Q01DX001 (ip), vehicle: saline.
The mark [4] stands for this setting: dose: 200.0 mg/kg/injection, schedule: Q01DX001 (ip), vehicle: saline.
[5] abbreviates: dose: 400.0 mg/kg/injection, schedule: Q01DX001 (ip), vehicle: saline.
Setting [6] is: dose: 200.0 mg/kg/injection, schedule: Q04DX003 (ip), vehicle: Klucel (hydroxypropylcellulose) (HPC).
[7] abbreviates: dose: 400.0 mg/kg/injection, schedule: Q01DX001 (ip), vehicle: Klucel (hydroxypropylcellulose) (HPC).
The mark [8] stands for this setting: dose: 50.0 mg/kg/injection, schedule: Q04DX003 (ip), vehicle: Klucel (hydroxypropylcellulose) (HPC).
The mark [9] stands for this setting: dose: 100.0 mg/kg/injection, schedule: Q04DX003 (ip), vehicle: Klucel (hydroxypropylcellulose) (HPC).

Consider 17 compounds from PubChem BioAssay AID190 (DTP/NCI, 2004).

Structures are written as SMILES. Values joined by “and” are separate entries in the source; they are usually repeats but may differ in a detail not shown here. Equal entries are not always repeated. Inconclusive results and toxic doses are left out.

Consider `Nc1nc(=S)c2[nH]cnc2[nH]1`, for which the T/C was 96 % of control (dose: 0.12 mg/kg/injection, schedule: Q01DX009 (ip), vehicle: saline); 96 % of control (dose: 0.25 mg/kg/injection, schedule: Q01DX009 (ip), vehicle: saline); 110 % of control (dose: 0.5 mg/kg/injection, schedule: Q01DX009 (ip), vehicle: saline); 110 % of control (dose: 0.5 mg/kg/injection, schedule: Q04DX003 (ip), vehicle: saline); 93 % of control and 100 % of control (dose: 1.0 mg/kg/injection, schedule: Q01DX009 (ip), vehicle: saline); 120 % of control (dose: 1.0 mg/kg/injection, schedule: Q04DX003 (ip), vehicle: saline). For the same compound, the T/C is 87 % of control (dose: 2.0 mg/kg/injection, schedule: Q01DX009 (ip), vehicle: saline); 116 % of control (dose: 2.0 mg/kg/injection, schedule: Q04DX003 (ip), vehicle: saline); 120 % of control (dose: 4.0 mg/kg/injection, schedule: Q04DX003 (ip), vehicle: saline); 87 % of control (dose: 8.0 mg/kg/injection, schedule: Q04DX003 (ip), vehicle: saline); 118 % of control (dose: 16.0 mg/kg/injection, schedule: Q04DX003 (ip), vehicle: saline); 98 % of control (dose: 6.2 micrograms/kg/injection, schedule: Q03HX032 (ip), vehicle: saline). The T/C reads like this: (dose: 12.5 micrograms/kg/injection, schedule: Q03HX032 (ip), vehicle: saline) 98 % of control; (dose: 25.0 micrograms/kg/injection, schedule: Q03HX032 (ip), vehicle: saline) 101 % of control; (dose: 50.0 micrograms/kg/injection, schedule: Q03HX032 (ip), vehicle: saline) 114 % of control; (dose: 100.0 micrograms/kg/injection, schedule: Q03HX032 (ip), vehicle: saline) 118 % of control.
In the case of `O=C(c1ccccc1)C1CCC1`, the T/C was 95 % of control under setting [1] and 95 % of control under setting [2].
Turning to `Cc1cnc2c(=N)n(C(=O)C(F)(F)F)n(C)c2n1`, the T/C was 89 % of control under setting [3], 100 % of control under setting [4] and 92 % of control under setting [5].
Consider `CC(=O)N(C(C)=O)c1ccc(C)cc1`, for which the T/C reads like this: under setting [3], 93 % of control; under setting [4], 104 % of control; under setting [5], 104 % of control.
On to `O=C(NC(CSSCC(NC(=O)OCc1ccccc1)C(=O)O)C(=O)O)OCc1ccccc1` (configuration not stated), for which the T/C is 107 % of control under setting [3]; 100 % of control (dose: 100.0 mg/kg/injection, schedule: Q04DX003 (ip), vehicle: saline); 107 % of control under setting [4]; 102 % of control under setting [5]; 89 % of control (dose: 400.0 mg/kg/injection, schedule: Q04DX003 (ip), vehicle: saline).
For the compound `CN(C)c1nc(N(C)C)nc(N(C)C)n1`, the T/C is 111 % of control (dose: 80.0 mg/kg/injection, schedule: Q04DX003 (ip), vehicle: Klucel (hydroxypropylcellulose) (HPC)) and 108 % of control (dose: 160.0 mg/kg/injection, schedule: Q04DX003 (ip), vehicle: Klucel (hydroxypropylcellulose) (HPC)).
Turning to `CC(=O)N1C(=O)C2(c3ccccc31)c1cccc3c1C(=C1C(=O)OC(=O)C12)C(=O)N3C(C)=O` (configuration not stated), the T/C runs as follows: under setting [4], 86 % of control; under setting [5], 91 % of control.
With `CC(=O)CCN1C(=O)c2ccccc2C1=O`, the T/C runs as follows: under setting [1], 105 % of control; under setting [2], 105 % of control; under setting [6], 97 % of control; under setting [7], 102 % of control; (dose: 400.0 mg/kg/injection, schedule: Q04DX003 (ip), vehicle: Klucel (hydroxypropylcellulose) (HPC)) 89 % of control.
For `COc1ccc(CCNC(=S)NCCc2ccc(OC)c(OC)c2)cc1OC`, the T/C was 94 % of control (dose: 25.0 mg/kg/injection, schedule: Q04DX003 (ip), vehicle: Klucel (hydroxypropylcellulose) (HPC)); 105 % of control under setting [8]; 88 % of control under setting [1]; 100 % of control under setting [9]; 86 % of control under setting [7].
For `c1ccc2c(c1)CNC2`, the T/C under setting [3] is 97 % of control, the T/C under setting [4] is 123 % of control and the T/C under setting [5] was 111 % of control.
In the same order, the values of `COc1cccc2c1CCC1=C2CC2C(=O)C1CCC2(C)O` (configuration not stated) are 88 % of control, 97 % of control and 100 % of control.
Consider `COc1ccc(S(=O)O)cc1NC(C)=O`, for which the T/C by setting is: (dose: 50.0 mg/kg/injection, schedule: Q04DX003 (ip), vehicle: other) 95 % of control; under setting [3], 107 % of control; (dose: 100.0 mg/kg/injection, schedule: Q04DX003 (ip), vehicle: other) 97 % of control; under setting [4], 101 % of control; (dose: 200.0 mg/kg/injection, schedule: Q04DX003 (ip), vehicle: other) 95 % of control.
With `N=c1ccn2c(n1)OC1C(O)C(CO)OC12` (configuration not stated), the T/C (dose: 6.0 mg/kg/injection, schedule: Q01DX009 (ip), vehicle: saline) was 105 % of control; the T/C (dose: 6.2 mg/kg/injection, schedule: Q01DX009 (ip), vehicle: saline) is 100 % of control; the T/C (dose: 12.0 mg/kg/injection, schedule: Q01DX009 (ip), vehicle: saline) is 105 % of control; the T/C (dose: 12.5 mg/kg/injection, schedule: Q01DX009 (ip), vehicle: saline) was 114 % of control and 120 % of control; the T/C (dose: 25.0 mg/kg/injection, schedule: Q04DX003 (ip), vehicle: saline) was 100 % of control; the T/C (dose: 37.5 mg/kg/injection, schedule: Q01DX009 (ip), vehicle: saline) is 111 % of control. For the same compound, the T/C runs as follows: (dose: 50.0 mg/kg/injection, schedule: Q01DX001 (ip), vehicle: saline) 111 % of control; (dose: 50.0 mg/kg/injection, schedule: Q04DX003 (ip), vehicle: saline) 102 % of control; under setting [3], 91 % of control and 117 % of control; under setting [4], 105 % of control and 111 % of control; (dose: 300.0 mg/kg/injection, schedule: Q01DX001 (ip), vehicle: saline) 123 % of control; (dose: 300.0 mg/kg/injection, schedule: Q01DX009 (ip), vehicle: saline) 153 % of control. The T/C is, setting by setting: (dose: 500.0 mg/kg/injection, schedule: Q01DX009 (ip), vehicle: saline) 105 % of control; (dose: 600.0 mg/kg/injection, schedule: Q04DX003 (ip), vehicle: saline) 168 % of control.
Take `c1cc2cc3c(cc2cc1CC1NCCc2cc4c(cc21)OCO4)OCO3` (configuration not stated): the T/C reads like this: under setting [1], 94 % of control; under setting [9], 96 % of control; under setting [2], 105 % of control; under setting [7], 94 % of control.
As to `Cc1ccc(N2C(=O)CC(Sc3ccccc3N)C2=O)cc1` (configuration not stated), the T/C under setting [8] is 100 % of control, the T/C under setting [1] is 100 % of control, the T/C under setting [9] was 90 % of control and the T/C under setting [6] is 90 % of control.
On to `CC(=O)NC1CC2c3ccccc3C1([N+](=O)[O-])c1ccccc12` (configuration not stated), for which the T/C under setting [1] is 104 % of control, the T/C under setting [2] is 97 % of control and the T/C under setting [7] is 102 % of control.
On to `CC(C)(CNc1ccc(C(=O)O)cc1)[N+](=O)[O-]`, for which the T/C was 102 % of control under setting [3], 95 % of control under setting [4] and 86 % of control under setting [5].
